Key:
Format in all cases: functional
UACC-257 [1] = test: Cytotoxicity against human UACC257 cells after 48 hrs by SRB assay; details: UACC-257, 48 h
UACC-62 = test: Cytotoxicity against human UACC62 cells after 48 hrs by SRB assay; details: UACC-62, 48 h
IGROV-1 = test: Growth inhibition of human IGROV1 cells assessed as cell growth at 10^-7 M incubated for 48 hrs by sulforhodamine B assay relative to control; details: IGROV-1, 48 h, read-out: Activity
DU-145 = test: Growth inhibition of human DU145 cells assessed as cell growth at 10^-8 M incubated for 48 hrs by sulforhodamine B assay relative to control; details: DU-145, 48 h, read-out: Activity
MOLT-4 = test: Cytotoxicity against human MOLT4 cells after 48 hrs by SRB assay; details: MOLT-4, 48 h
OVCAR-8 = test: Growth inhibition of human OVCAR8 cells assessed as cell growth at 10^-6 M incubated for 48 hrs by sulforhodamine B assay relative to control; details: OVCAR-8, 48 h, read-out: Activity
NCI-H23 = test: Growth inhibition of human NCI-H23 cells assessed as cell growth at 10^-8 M incubated for 48 hrs by sulforhodamine B assay relative to control; details: NCI-H23, 48 h, read-out: Activity
HL-60(TB) = test: Growth inhibition of human HL-60(TB) cells assessed as cell growth at 10^-5 M incubated for 48 hrs by sulforhodamine B assay relative to control; details: HL-60, 48 h, read-out: Activity
MDA-MB-468 = test: Growth inhibition of human MDA-MB-468 cells assessed as cell growth at 10^-7 M incubated for 48 hrs by sulforhodamine B assay relative to control; details: MDA-MB-468, 48 h, read-out: Activity
T47D [2] = test: Growth inhibition of human T47D cells assessed as cell growth at 10^-8 M incubated for 48 hrs by sulforhodamine B assay relative to control; details: read-out: Activity
MDA-MB-435 [3] = test: Cytotoxicity against human MDA-MB-435 cells after 48 hrs by SRB assay; details: MDA-MB-435, 48 h
UACC-257 [4] = test: Growth inhibition of human UACC257 cells assessed as cell growth at 10^-5 M incubated for 48 hrs by sulforhodamine B assay relative to control; details: UACC-257, 48 h, read-out: Activity
T47D [5] = test: Growth inhibition of human T47D cells assessed as cell growth at 10^-7 M incubated for 48 hrs by sulforhodamine B assay relative to control; details: read-out: Activity
OVCAR-4 = test: Growth inhibition of human OVCAR4 cells assessed as cell growth at 10^-6 M incubated for 48 hrs by sulforhodamine B assay relative to control; details: OVCAR-4, 48 h, read-out: Activity
Hs-578T = test: Growth inhibition of human Hs 578T cells assessed as cell growth at 10^-8 M incubated for 48 hrs by sulforhodamine B assay relative to control; details: read-out: Activity
KM12 = test: Cytotoxicity against human KM12 cells after 48 hrs by SRB assay; details: KM12, 48 h
NCI/ADR-RES = test: Growth inhibition of human NCI/ADR-RES cells assessed as cell growth at 10^-6 M incubated for 48 hrs by sulforhodamine B assay relative to control; details: read-out: Activity
PC-3 = test: Growth inhibition of human PC3 cells assessed as cell growth at 10^-4 M incubated for 48 hrs by sulforhodamine B assay relative to control; details: PC-3, 48 h, read-out: Activity
EKVX = test: Growth inhibition of human EKVX cells assessed as cell growth at 10^-6 M incubated for 48 hrs by sulforhodamine B assay relative to control; details: read-out: Activity
UACC-257 [6] = test: Growth inhibition of human UACC257 cells assessed as cell growth at 10^-6 M incubated for 48 hrs by sulforhodamine B assay relative to control; details: UACC-257, 48 h, read-out: Activity
HCT-116 [7] = test: Growth inhibition of human HCT116 cells assessed as cell growth at 10^-7 M incubated for 48 hrs by sulforhodamine B assay relative to control; details: HCT-116, 48 h, read-out: Activity
SK-OV-3 = test: Growth inhibition of human SKOV3 cells assessed as cell growth at 10^-7 M incubated for 48 hrs by sulforhodamine B assay relative to control; details: SK-OV-3, 48 h, read-out: Activity
BT-549 = test: Growth inhibition of human BT549 cells assessed as cell growth at 10^-5 M incubated for 48 hrs by sulforhodamine B assay relative to control; details: BT-549, 48 h, read-out: Activity
HCT-116 [8] = test: Growth inhibition of human HCT116 cells assessed as cell growth at 10^-8 M incubated for 48 hrs by sulforhodamine B assay relative to control; details: HCT-116, 48 h, read-out: Activity
SR = test: Cytotoxicity against human SR cells after 48 hrs by SRB assay
U-251 = test: Growth inhibition of human U251 cells assessed as cell growth at 10^-8 M incubated for 48 hrs by sulforhodamine B assay relative to control; details: U-251, 48 h, read-out: Activity
MDA-MB-435 [9] = test: Growth inhibition of human MDA-MB-435 cells assessed as cell growth at 10^-8 M incubated for 48 hrs by sulforhodamine B assay relative to control; details: MDA-MB-435, 48 h, read-out: Activity
786-0 = test: Growth inhibition of human 786-0 cells assessed as cell growth at 10^-8 M incubated for 48 hrs by sulforhodamine B assay relative to control; details: 786-0, 48 h, read-out: Activity
RXF 393 = test: Growth inhibition of human RXF393 cells assessed as cell growth at 10^-8 M incubated for 48 hrs by sulforhodamine B assay relative to control; details: RXF 393, 48 h, read-out: Activity
[10] = read-out: LC50 (the source's name)
[11] = read-out: pLC50 (the source's name) (converted)

C#C[C@@]1(O)[C@@H](CO)O[C@@H](n2cc(Br)c3c(N)ncnc32)[C@@H]1O
GI50 (UACC-257 [1]; read-out: GI50): 2.82 to 5.9 µM
CC50 (UACC-257 [1]; [10]): > 100 µM
TGI (UACC-257 [1]; read-out: TGI): 49.2 to 77 µM
GI50 (UACC-62; read-out: GI50): 0.151 to 0.349 µM
CC50 (UACC-62; [10]): 60 to 74.9 µM
TGI (UACC-62; read-out: TGI): 11.8 to 12.9 µM
growth at 0.1 µM (IGROV-1): 11 to 43%
growth at 0.01 µM (DU-145): 98 to 100%
GI50 (MOLT-4; read-out: GI50): 0.0708 to 0.178 µM
CC50 (MOLT-4; [10]): > 100 µM
TGI (MOLT-4; read-out: TGI): 0.778 to 100 µM
growth at 1 µM (OVCAR-8): 1 to 4%
growth at 0.01 µM (NCI-H23): 90 to 91%
growth at 10 µM (HL-60(TB)): -51%
growth at 0.1 µM (MDA-MB-468): 56 to 87%
growth at 0.01 µM (T47D [2]): 64 to 81%
GI50 (MDA-MB-435 [3]; read-out: GI50): 0.105 to 0.294 µM
TGI (MDA-MB-435 [3]; read-out: TGI): 5.36 to 19.7 µM
CC50 (MDA-MB-435 [3]; [11]): > 100 µM
growth at 10 µM (UACC-257 [4]): 37 to 43%
growth at 0.1 µM (T47D [5]): 5 to 32%
growth at 1 µM (OVCAR-4): 19 to 29%
growth at 0.01 µM (Hs-578T): 90 to 96%
GI50 (KM12; read-out: GI50): 0.0946 to 0.121 µM
TGI (KM12; read-out: TGI): > 100 µM
CC50 (KM12; [11]): > 100 µM
TGI (KM12; read-out: pTGI (converted)): > 100 µM
growth at 1 µM (NCI/ADR-RES): 6%
growth at 100 µM (PC-3): -5%
growth at 1 µM (EKVX): 4 to 17%
growth at 1 µM (UACC-257 [6]): 60 to 73%
growth at 0.1 µM (HCT-116 [7]): 2 to 12%
growth at 0.1 µM (SK-OV-3): 28 to 62%
growth at 10 µM (BT-549): -44%
growth at 0.01 µM (HCT-116 [8]): 83%
GI50 (SR; read-out: GI50): 0.0438 to 0.0845 µM
TGI (SR; read-out: TGI): > 100 µM
CC50 (SR; [11]): > 100 µM
TGI (SR; read-out: pTGI): > 100 µM
growth at 0.01 µM (U-251): 57 to 87%
growth at 0.01 µM (MDA-MB-435 [9]): 89 to 92%
growth at 0.01 µM (786-0): 86 to 91%
growth at 0.01 µM (RXF 393): 99%
